Source: patent US10111955B2, “PEG derivative” (priority 2014, dated 2018)

Key:
pancreatic cancer cells = assay: Test Example 1: pancreatic cancer cells transplanted into BALB/c nude mouse, tumor volume and body weight; assay type: in vivo; settings: 4.5 mg/kg/day × 14 days, subcutaneous continuous infusion
Protocol: 5×10^6 cells of pancreatic cancer cells were transplanted into the right abdomen of a BALB/c nude mouse, and after 7 days, at the time point at which the average tumor size reached 100 mm^3, drug administration was initiated. Up to 29 days from the time of drug administration, the body weight of the mouse and the tumor volume were measured. The results are presented in FIG. 11, FIG. 12, and Table 1. Subcutaneous continuous infusion of 1-(2′-cyano-2′-deoxy-β-D-arabinofuranosyl)cytosine hydrochloride (DFP-10917) at a dose of 4.5 mg/kg/day was continuously performed for two weeks using a micropump embedded in the body of the mouse. In contrast, Compound (1a) was intravenously administered once a week at a dose of 100 mg/kg, 200 mg/kg, or 300 mg/kg. The dosage of this Compound (1a) is administration once a week at a dose of 2.4 mg/kg, 4.8 mg/kg, or 7.2 mg/kg, as converted to […]. For the control, a buffer solution (pH=5.0) of sodium acetate was administered.

[1] = system: Human lung cancer cell A549 cells; assay: Test Example 5 (second): human lung cancer cell A549 transplanted into nude mouse, Tables 5 and 6; assay type: in vivo, BALB/c nude mouse; settings: once a day, for 2 weeks
Description: Human lung cancer cell A549 cells were transplanted into the right abdomen of a BALB/c nude mouse, and after 11 days, at the time point at which the average tumor size reached 200 mm^3, drug administration was initiated.

[2] = system: human pancreatic cancer cell Panc-1; assay: Test Example 5: human pancreatic cancer cell Panc-1 transplanted into nude mouse; assay type: in vivo, BALB/c nude mouse; settings: 100 mg/kg iv, repeated four times, total dosage 400 mg/kg
Protocol: (§1) Compound (1a) was intravenously administered once a week at a dose of 200 mg/kg (the amount as converted to DFP-10917 was 4.8 mg/kg), and pemetrexed, which is a standard drug for lung cancer, was intraperitoneally administered once a week at a dose of 300 mg/kg. For the control, physiological saline was intravenously administered once a week. The observation was made for two weeks (administered two times in total). 5×10^6 cells of human pancreatic cancer cell Panc-1 were transplanted into the right abdomen of a BALB/c nude mouse, and drugs were administered in the same manner as in Test Example 3. Compound (1g) was intravenously administered once a week, two times in total, or twice a week. Gemcitabine was administered such that 100 mg/kg was administered in four divided portions over 3 days, and this intravenous administration was repeated four times in total. For the control, physiological saline was administered once a week.

[3] = system: human breast cancer cell BT474; assay: Test Example 4: human breast cancer cell BT474 transplanted into nude mouse; assay type: in vivo, BALB/c nude mouse; settings: 100 mg/kg once a week, total dosage 200 mg/kg
Protocol: as §1, with “1×10^7” for “5×10^6”, “breast” for “pancreatic”, “BT474” for “Panc-1”, “3. DFP-10917 and” for “3.”, “(1a) were” for “(1g) was”, “two” for “two times in total, or twice a week. Gemcitabine was administered such that 100 mg/kg was administered in four divided portions over 3 days, and this intravenous administration was repeated four”

[4] = system: human breast cancer cell BT474; assay: Test Example 6: human breast cancer cell BT474 transplanted into nude mouse; assay type: in vivo, BALB/c nude mouse; settings: 5 mg/kg iv, once a week, for 2 weeks
Protocol: 1×10^7 cells of human breast cancer cell BT474 were transplanted into the right abdomen of a BALB/c nude mouse, and when the tumor volume reached 100 to 150 mm^3, drugs were administered. The administration was implemented once a week for two weeks.

[5] = system: human lung cancer cell A549; assay: Test Example 3: human lung cancer cell A549 transplanted into nude mouse; assay type: in vivo, BALB/c nude mouse; settings: 300 mg/kg intraperitoneally once a week, total dosage 600 mg/kg, two weeks
Protocol: 5×10^6 cells of human lung cancer cell A549 were transplanted into the right abdomen of a BALE/c nude mouse, and after 14 days, at the time at which the average tumor size reached 127 mm^3, drug administration was initiated. Compound (1a) was intravenously administered once a week at a dose of 200 mg/kg (the amount as converted to DFP-10917 was 4.8 mg/kg), and pemetrexed, which is a standard drug for lung cancer, was intraperitoneally administered once a week at a dose of 300 mg/kg. For the control, physiological saline was intravenously administered once a week. The observation was made for two weeks (administered two times in total).

Cl.N#C[C@H]1[C@H](O)[C@@H](CO)O[C@H]1n1ccc(N)nc1=O [DFP-10917, 1-(2′-cyano-2′-deoxy-β-D-arabinofuranosyl)cytosine hydrochloride]
TGI (D 29, %) tumor growth inhibition (pancreatic cancer cells): 37.7% | Tumor Volume (D 29, mm^3) (pancreatic cancer cells; Mean ± SEM): 917 ± 72 mm^3

CCNCCNC(=O)c1c(C)[nH]c(/C=C2\C(=O)Nc3ccc(F)cc32)c1C [De-ethylated form of sunitinib]
TGI (D 29, %) ([1]; 50 mg/kg po): 43.1% | Tumor Volume (D 29, mm^3) ([1]; 50 mg/kg po): 687 ± 103 mm^3

Nc1ccn([C@@H]2O[C@H](CO)[C@@H](O)C2(F)F)c(=O)n1 [Gemcitabine, gemcitabine]
TGI (tumor growth inhibition) [2]: 63.6 | Tumor Volume ([2]; in mm³ (unit assumed)): 370 ± 37 | TGI (tumor growth inhibition) [3]: 43 | Tumor Volume [3]: 525 ± 95

CS(=O)(=O)CCNCc1ccc(-c2ccc3ncnc(Nc4ccc(OCc5cccc(F)c5)c(Cl)c4)c3c2)o1 [Lapatinib, lapatinib]
TGI (D 29, %) ([1]; 100 mg/kg po): 25.6% | Tumor Volume (D 29, mm^3) ([1]; 100 mg/kg po): 898 ± 120 mm^3

CC(=O)O[C@H]1C(=O)[C@@]2(C)[C@H]([C@H](OC(=O)c3ccccc3)[C@]3(O)C[C@H](OC(=O)[C@H](O)[C@@H](NC(=O)c4ccccc4)c4ccccc4)C(C)=C1C3(C)C)[C@]1(OC(C)=O)CO[C@@H]1C[C@@H]2O [Paclitaxel, paclitaxel]
TGI (D 23, %) tumor growth inhibition ratio [4]: 29.8% | Tumor Volume (D 23, mm^3) [4]: 275 ± 39 mm^3

Nc1nc2[nH]cc(CCc3ccc(C(=O)N[C@@H](CCC(=O)O)C(=O)O)cc3)c2c(=O)[nH]1 [Pemetrexed, pemetrexed]
TGI (tumor growth inhibition) [5]: 30 | Tumor Volume ([5]; in mm³): 818 ± 44
